Results: patent US7531195B2, “Schisandrin B preparation” (priority 2005, dated 2009)
Marks after values point to notes of the source that are not given here.

Columns and labels:
Myocardial Mitochondria = test: Myocardial mitochondrial ATP generation capacity, young male and female rats; type: in vivo, rat; settings: 35 days
Method: Male/Female adult Sprague-Dawley rats (˜10 weeks old) were maintained under a 12-h dark/light cycle at about 22° C. and allowed food and water ad libitum. Animals were randomly divided into groups, with at least 5 animals in each. In the pretreatment groups, rats were treated intragastrically with (−) Schisandrin B at a daily dose of 1 or 10 mg/kg for 35 days. Control animals received oil only (10 ml/kg). Twenty-four hours following the last dosing, hearts were isolated from control or drug-pretreated rats and then subjected to Langendorff perfusion as described below.
Myocardial tissue samples were rinsed with ice-cold isotonic buffer (50 mM Tris, 0.32 M sucrose, 1 mM Na2EDTA, 0.2 mg/ml soybean trypsin inhibitor, 0.2 mg/ml bacitracine, 0.16 mg/ml benzamidine). Tissue homogenates were prepared by homogenizing 0.8 g of myocardial tissue in 8 ml ice-cold isotonic buffer and the homogenates were used for the preparation of mitochondrial fractions by differential centrifugation, as described in Chiu and Ko (2004). The mitochondrial pellets were resuspended in 1.5 ml of isotonic buffer containing 150 μl of 2 mg/ml soybean trypsin inhibitor and constituted the mitochondrial fractions.
Myocardial mitochondrial ATP generation capacity was measured by incubating 200 μl of nucleus-free tissue homogenate with 200 μl of substrate solution (containing 100 mM glutamate and 34 mM malate) and 20 μl ADP (2.3 mM) for 10 min at 37° C., and the ATP level were measured using an assay kit from Sigma Chemical Co. (St. Louis, Mo., USA). LDH activity was spectrophotometrically measured as described (Yim and Ko 1999).

H9c2 cells = test: Menadione-induced toxicity (LDH) in H9c2 cells; type: cell-based, rat
Method: H9c2 cells, a permanent cell line derived from cardiac myoblasts of rat embryo, have early been characterized as a suitable model of myocardial cells [Hescheler et al. 1991]. H9c2 cells were cultured as monolayers in Dulbecco's modified Eagle's medium (GIBCO BRL) supplemented with 10% (v/v) fetal bovine serum. The medium contained glucose (4.5 g/L) and glutamine (4.5 mM), supplemented with NaHCO3 (17 mM), penicillin (100 IU/ml), and streptomycin (100 μg/ml). Cells were grown under an atmosphere of 5% CO2 in air at 37° C. The medium was replaced by fresh medium every 2 or 3 days. A stock of cells was grown in a 75 cm culture flask and split before confluence at a subcultivation ratio of 1:10. Cells used for experiments were seeded at a density of 3.75×10^4 cells/well on a 12-well culture plate, and the cells were grown for 24 h to about 80% confluence prior to drug treatment.
Cultured H9c2 cells were treated with (−) Schisandrin B, (+) Schisandrin B or (±) Schisandrin B (dissolved in DMSO) at 6.25 μM (0.2% DMSO final concentration) for 16 h. Control cells were given the vehicle (i.e. DMSO) only. Immediately following the drug or vehicle pretreatment, the cells were challenged with menadione (dissolved in ethanol) at 12.5 μM (0.2% ethanol final concentration) for 4 h. The control cells were treated with the medium containing 0.2% ethanol only. After the menadione challenge, the medium was taken for the measurement of LDH activity, an biochemical index of cell injury.

[1] = system: mitochondria of brain, heart, liver and skeletal muscle; test: Mitochondrial antioxidant components in tissues of young adult and middle-aged rats; type: in vivo, rat; settings: 10 mg/kg/day x 15, range among tissues
Method: Young adult (8-10 week-old) and middle-aged (12-14 month-old retired breeder) female Sprague-Dawley rats were maintained under a 12-h dark/light cycle at about 22° C. and allowed food and water ad libitum. Experimental protocols were approved by the Research Practice Committee at the Hong Kong University of Science & Technology, Hong Kong. Animals were randomly divided into groups, with 5 animals in each. In the treatment groups, rats were intragastrically administered with Sch B (dissolved/suspended in olive oil) at a daily dose of 10 mg/kg for 15 days. The daily dose is approximated to 1.14 mg/kg for humans after adjusting the inter-species difference in drug distribution in the body. Untreated control animals received olive oil only. Twenty-four hours after the last dosing, animals were sacrificed by decapitation and the whole brain, heart ventricular, liver and skeletal muscle (hind limb) tissues were excised and subjected to biochemical analysis. To investigate the effect of (−) Sch B on myocardial ischemia-reperfusion […] injury, rats were intragastrically administered with (−) Sch B at a daily dose of 10 mg/kg for 35 days. Untreated control animals received olive oil only. Twenty-four hours after the last dosing, hearts were isolated from pentobarbital-anesthetized animals and subjected to I-R experiment.
Mitochondrial pellets were prepared from tissue homogenates by centrifugation at 800×g at 4° C. for 30 min, with purity being determined by measuring the relative specific activities of succinate dehydrogenase and lactate dehydrogenase (LDH) in the supernatant and mitochondrial pellet. Mitochondrial pellets were then resuspended in 1 ml of the respective homogenizing buffer used for various tissues and constituted the mitochondrial fractions. The protein concentration of mitochondrial fractions was determined using a Bio-Rad protein assay kit.
Aliquots (200 μl) of mitochondrial fractions were used for measuring mitochondrial glutathione (GSH) and α-tocopherol (α-TOC) levels by an enzymatic method and HPLC method, respectively, using GSH and α-TOC as standards. Se-glutathione peroxidase (GPX) activity was measured. Mn-superoxide dismutase (SOD) activity was measured by monitoring the […] of cytochrome c caused by superoxide radicals generated from the xanthine oxidase-xanthine reaction.

[2] = system: mitochondria of brain, heart, liver and skeletal muscle; test: Mitochondrial ATP generation capacity in various tissues of young female rats; type: in vivo, rat; settings: 15 days; for ATP generation: (−) Sch B, α-LA, α-Toc at daily 10, 5 and 70 mg/kg respectively
[3] = female rats, 1 mg/kg daily oral
[4] = female rats, 10 mg/kg daily oral
[5] = MENADIONE 12.5 μM for 4 h, drug 6.25 μM for 16 h

COc1cc2c(c(OC)c1OC)-c1c(cc3c(c1OC)OCO3)CC(C)C(C)C2 (single isomer, unassigned; (-)) [(−) Sch B, (−) Schisandrin B]
ATP Generation, percent increase vs untreated control (Myocardial Mitochondria; [3]): (26%)
ATP generation (Myocardial Mitochondria; [3]): 4.11 ± 0.19^b μmol/min/mg protein
ATP Generation, percent increase vs untreated control (Myocardial Mitochondria; [4]): (78%)
ATP generation (Myocardial Mitochondria; [4]): 5.79 ± 0.37^b μmol/min/mg protein
ATP Generation, percent increase vs untreated control (Myocardial Mitochondria; male rats, 1 mg/kg daily oral): (99%)
ATP Generation, percent increase vs untreated control (Myocardial Mitochondria; male rats, 10 mg/kg daily oral): (141%)
ATP generation (Myocardial Mitochondria; male rats, 10 mg/kg daily oral): 6.74 ± 0.37^a μmol/min/mg protein
LDH (H9c2 cells; [5]): 20.6 ± 0.18 U/ml
LDH, percent protection vs menadione control (H9c2 cells; [5]): (60%)
LDH (H9c2 cells; NON-MENADIONE, 6.25 μM for 16 h): 14.3 ± 0.29 U/ml
extent of stimulation of mitochondrial GPX activity [1]: 21-41%
extent of stimulation of mitochondrial GSH level [1]: 21-29%
extent of stimulation of mitochondrial SOD activity [1]: 19-34%
extent of stimulation of mitochondrial α-TOC level [1]: 19-34%
ATP generation ([2]; BRAIN): 143 ± 2 percent control
ATP generation ([2]; HEART): 131 ± 4 percent control
ATP generation ([2]; LIVER): 134 ± 5 percent control
change in ATP generation in skeletal muscle tissue ([2]; SKELETAL MUSCLE, 10 mg/kg daily): No detectable change
ATP generation ([2]; SKELETAL MUSCLE): 105 ± 41 percent control
